Test results: article PMC10799042 (Scientific Reports, 2024)

Tests used:
[1] = tested on: scopolamine-induced memory impairment and learning disability in mice; experiment: Morris water maze, scopolamine-induced memory impairment; format: in vivo, Swiss albino male mice; settings: for escape latency versus scopolamine-treated mice (in words): 2 mg/kg, day 1 to 5; for Escape latency, 2nd Day: day 2; for Escape latency, 3rd Day: day 3; for Escape latency, 4th Day: day 4; for Escape latency, 5th Day: day 5
Procedure: Swiss albino male mice weighing 25–30 g were purchased from LLRUVAS in Hisar, Haryana, India. […] The housing, care, and handling of the animals were done per CPCSEA requirements. The animals were exposed to the laboratory setting for seven days before the experiment.
(§1) The animals were properly acclimated before being randomly placed into 12 groups (I-XII), with six animals in each group. […] Following the delivery of the dose to the mouse, the rodent's behaviour was assessed using the traditional Morris water maze (MWM) technique.
Five days of continuous animal evaluations were conducted using the MWM model. […] The tank was placed in a dim laboratory, and using wires anchored at the pool's edge at an angle to one another, it was divided into four equal pieces (P1–P4). A stage in the targeted area (P4) of the pool with an upper face (6 × 6 cm^2) immersed in the water (1.0 cm below the surface). The location of the stage stayed the same throughout the evaluation. The animals were subjected to water pools throughout the evaluation by turning their heads towards the wall from any of the four segments, namely P1-P4, and being given 90 s to recognise the stage placed in a pool. If the animal couldn't get to the stage in 90 s, they were gently guided onto the stage under supervision. On the sixth day, one of the parameters used to determine if cognitive impairments have recovered was the time it took the mice to travel from the initial portion to locate the hidden stage in the intended part (escape latency). […]

[2] = tested on: Catalase; experiment: Catalase assay in brain homogenate; format: in vivo; settings: brain THS of mice, scopolamine 1.5 mg/kg i.p.; donepezil and compounds 2 mg/kg p.o.; mean ± SD
Procedure: as §1
(§2) After five days of behavioral assessment, the mice's brains were removed and homogenized (blended) in chilled phosphate buffer (pH 7.4) at a concentration of 10% w/v (weight per volume). The homogenates were then centrifuged (spun at high speed) for 20 min at 4 °C to separate the supernatant (liquid) from the pellet (solid material). The supernatant was then collected to measure biological substances.
Employing the methodology of Luck et al., catalase activity was quantified. The sample contained H2O2 (1.0 mL, 0.019 M), phosphate buffer (1.95 mL, 0.05 M, pH 7.0), and THS (0.05 mL). The optical density was computed at a wavelength of 240 nm. The findings were shown as μM H2O2 decomposition/min/mg protein[13].

[3] = tested on: Superoxide dismutase (SOD); experiment: Superoxide dismutase (SOD) assay in brain homogenate; format: in vivo; settings: brain THS of mice, scopolamine 1.5 mg/kg i.p.; donepezil and compounds 2 mg/kg p.o.; mean ± SD
Procedure: as §1, §2
The samples contained EDTA, sodium carbonate, and NBT, and the assay was performed using Kono's method. Each sample tube contained 2.0 mL of this mixture, as well as THS and hydroxylamine. The absorbance of the mixture was measured at 560 nm every 30 or 60 s for 2 min to track changes in absorbance.

[4] = target: T1, Acetylcholinesterase (AChE) (Mus musculus, UniProt P21836); settings: brain THS of mice, scopolamine 1.5 mg/kg i.p.; donepezil and compounds 2 mg/kg p.o.; mean ± SD
T1 sequence (P21836 32-614): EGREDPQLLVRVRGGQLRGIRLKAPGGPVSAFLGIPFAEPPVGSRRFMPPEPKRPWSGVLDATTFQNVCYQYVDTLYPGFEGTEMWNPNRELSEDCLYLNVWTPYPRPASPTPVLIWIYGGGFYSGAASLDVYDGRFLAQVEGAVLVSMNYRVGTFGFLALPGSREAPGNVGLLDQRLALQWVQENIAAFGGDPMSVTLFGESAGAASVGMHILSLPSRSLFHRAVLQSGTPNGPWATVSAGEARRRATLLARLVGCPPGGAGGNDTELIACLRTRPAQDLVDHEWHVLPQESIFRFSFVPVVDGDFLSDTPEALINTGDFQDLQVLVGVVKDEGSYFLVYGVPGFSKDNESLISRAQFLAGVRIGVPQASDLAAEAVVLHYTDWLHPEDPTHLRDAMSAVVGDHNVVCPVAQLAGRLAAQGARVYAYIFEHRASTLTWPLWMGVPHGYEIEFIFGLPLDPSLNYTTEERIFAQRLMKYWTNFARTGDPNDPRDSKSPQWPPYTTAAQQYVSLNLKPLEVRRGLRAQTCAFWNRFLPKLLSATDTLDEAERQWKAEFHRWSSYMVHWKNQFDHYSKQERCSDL
Procedure: as §1, §2
Employing Ellman et al., methodology, AChE levels were quantified in tissue homogenate supernatant (THS) to evaluate cholinergic abnormalities.

[5] = tested on: malondialdehyde (MDA); experiment: Lipid peroxidation (LPO) assay, MDA in brain homogenate; format: in vivo; settings: brain THS of mice, scopolamine 1.5 mg/kg i.p.; donepezil and compounds 2 mg/kg p.o.; mean ± SD
Procedure: as §1, §2
The amount of malondialdehyde (MDA), a marker of lipid peroxidation (LPO), was measured using a method described by Wills[10]. Tris–HCl buffer and THS were mixed and incubated at 37 °C for 2 h with 10% trichloroacetic acid. After incubation, the mixture was centrifuged again (at 1000 rpm for 10 min). […] After cooling, 1.0 mL of double-distilled water was added, and the absorbance was measured at 532 nm.

[6] = tested on: nitrite; experiment: Nitrite assay (Greiss reagent) in brain homogenate; format: in vivo; settings: brain THS of mice, scopolamine 1.5 mg/kg i.p.; donepezil and compounds 2 mg/kg p.o.; mean ± SD
Procedure: as §1, §2
The amount of nitric oxide in THS was calculated using Greiss' reagent, a mixture of chemicals that reacts with nitric oxide to produce a colored product. The absorbance of the colored product was computed at 540 nm and the concentration of nitrite was determined using a standard curve of known nitrite concentrations.

[7] = tested on: Reduced glutathione (GSH); experiment: Reduced glutathione (GSH) assay in brain homogenate; format: in vivo; settings: brain THS of mice, scopolamine 1.5 mg/kg i.p.; donepezil and compounds 2 mg/kg p.o.; mean ± SD
Procedure: as §1, §2
The method described by Jollow et al. was used to measure glutathione (GSH) levels. First, 1.0 mL of 4% sulfosalicylic acid was added to 1.0 mL of tissue homogenate to precipitate the GSH. The mixture was then incubated at 4 °C for 1 h and centrifuged at 1200 rpm for 10 min at 4 °C. The supernatant was collected and diluted to a final volume of 3.0 mL with phosphate buffer and Ellman's reagent. […]

[8] = mice, scopolamine 1.5 mg/kg i.p., donepezil and compounds 2 mg/kg p.o. with scopolamine, mean ± SD

Row | Substance | escape latency versus scopolamine-treated mice (in words) [1] | Escape latency, 1st Day ([1]; mice, scopolamine 1.5 mg/kg i.p., donepezil and compounds 2 mg/kg p.o. with scopolamine, day 1, mean ± SD) [s] | Escape latency, 2nd Day [1, 8] [s] | Escape latency, 3rd Day [1, 8] [s] | Escape latency, 4th Day [1, 8] [s] | Escape latency, 5th Day [1, 8] [s] | Catalase assay, Catalase activity [2] [min⁻¹] | SOD assay, SOD units/mg protein [3] [SOD units/mg protein] | μM of AChE/min/mg protein [4] | LPO assay, MDA levels [5] | Nitrite assay, nitrite conc. [6] [μM/mg protein] | GSH assay, μmol of GSH/mg Protein [7]
1 | N-(1-(1-(3,4-dimethoxybenzyl)-2-oxopyrrolidin-3-yl)piperidin-4-yl)-2,4-difluorobenzenesulfonamide [Compound 10] | significantly reduced escape latency | 80.33 ± 1.09 | 36 ± 1.09 | 25.33 ± 1.79 | 17 ± 1.67 | 3.66 ± 1.88 | 4.3 ± 0.01 | 3.07 ± 0.04 | 0.01 ± 0.01 μM of AChE/min/mg protein | 8.52 ± 0.05 nM/mg of tissue | 12.82 ± 0.04 | 0.10 ± 0.005 μmol of GSH/mg Protein
2 | N-(1-(1-(3,4-dimethoxybenzyl)-2-oxopyrrolidin-3-yl)piperidin-4-yl)-4-fluorobenzenesulfonamide [Compound 8] | significantly reduced escape latency | – | 43 ± 2.68 | 22.66 ± 1.79 | 14.16 ± 2.56 | 5.66 ± 1.97 | 5.23 ± 0.02 | 4.07 ± 0.03 | 0.01 ± 0.01 μM of AChE/min/mg protein | 9.71 ± 0.03 nM/mg of tissue | 11.92 ± 0.05 | 0.11 ± 0.001 μmol of GSH/mg Protein
